Measured values reported in US20020006447A1, “Anti-chlamydia agent” (Mitsui Norin Co., Ltd., priority 1998, published 2002).

System: C. trachomatis
Assay: C. trachomatis inclusion body formation in HeLa 229 cells after pre-incubation with single catechins (Example 2)
Assay type: cell-based, Chlamydia trachomatis
Conditions: incubated for 90 minutes at 37° C.
Method: As test Chlamydia was used C. trachomatis strain. Chlamydia capable of forming 10^4 inclusion bodies was incubated at 37° C. for 90 minutes in a SPG solution containing (−)-epicatechin gallate or (−)-epigallocatechin gallate in various concentratIons. After completion of the incubation, each solution was inoculated onto Hela 229 cell cultivated by monolayer culture and adsorbed by centrifugation at 1,500 rpm for 60 minutes. Thereafter, the inoculum was removed and culture medium for Chlamydia (Eagle Minimum Essential Culture Medium containing 1 μg/ml cycloheximide) was added and cultivation was performed at 37° C. for 72 hours. After completion of cultivation, the culture medium was removed and the cells were fixed with methanol and then stained with FITC-labeled anti-C. trachomatis monoclonal antibody, followed by counting the number of inclusion bodies of C. trachomatis.

Compound	concentration that completely inhibited the growth of C. trachomatis [mg/mL]
O=C(O[C@@H]1Cc2c(O)cc(O)cc2O[C@@H]1c1ccc(O)c(O)c1)c1cc(O)c(O)c(O)c1 [(−)-epicatechin gallate]	0.8
(−)-epigallocatechin gallate	1.6
